Results published in US7799821B2, “Therapeutic compounds” (Allergan, Inc., priority 2004, dated 2010).

target: T1, hEP2/Gqs5 (Homo sapiens, UniProt P43116); experiment: FLIPR calcium signal, hEP2; format: cell-based; settings: unit inferred; other columns of the table in nM; read-out: EP2 data flipr EC50
T1 construct: expressed in transfected cells; host or cells: HEK-293(EBNA)
Description: (§1) HEK-293(EBNA) cells, stably expressing one type or subtype of recombinant human prostaglandin receptors (prostaglandin receptors expressed: hDP/Gqs5; hEP1; hEP2/Gqs5; hEP3A/Gqi5; hEP4/Gqs5; hFP; hIP; hTP), were cultured in 100 mm culture dishes in high-glucose DMEM medium containing 10% fetal bovine serum, 2 mM 1-glutamine, 250 μg/ml geneticin (G418) and 200 μg/ml hygromycin B as selection markers, and 100 units/ml penicillin G, 100 μg/ml streptomycin and 0.25 μg/ml amphotericin B. • (b) Calcium Signal Studies on the FLIPR™
(§2) Cells were seeded at a density of 5×10^4 cells per well in Biocoat® Poly-D-lysine-coated black-wall, clear-bottom 96-well plates (Becton-Dickinson) and allowed to attach overnight in an incubator at 37° C. Cells were then washed two times with HBSS-HEPES buffer (Hanks Balanced Salt Solution without bicarbonate and phenol red, 20 mM HEPES, pH 7.4) using a Denley Cellwash plate washer (Labsystems). After 45 minutes of dye-loading in the dark, using the calcium-sensitive dye Fluo-4 AM at a final concentration of 2 μM, plates were washed four times with HBSS-HEPES buffer to remove excess dye leaving 100 μl in each well. Plates were re-equilibrated to 37° C. for a few minutes.
(§3) Cells were excited with an Argon laser at 488 nm, and emission was measured through a 510-570 nm bandwidth emission filter (FLIPR™, Molecular Devices, Sunnyvale, Calif.). Drug solution was added in a 50 μl volume to each well to give the desired final concentration. The peak increase in fluorescence intensity was recorded for each well. On each plate, four wells each served as negative (HBSS-HEPES buffer) and positive controls (standard agonists: BW245C (hDP); PGE2 (hEP1; hEP2/Gqs5; hEP3A/Gqi5; hEP4/Gqs5); PGF2α (hFP); carbacyclin (hIP); U-46619 (hTP), depending on receptor). The peak fluorescence change in each drug-containing well was then expressed relative to the controls.
(§4) Compounds were tested in a high-throughput (HTS) or concentration-response (CoRe) format. In the HTS format, forty-four compounds per plate were examined in duplicates at a concentration of 10^−5 M. To generate concentration-response curves, four compounds per plate were tested in duplicates in a concentration range between 10^−5 and 10^−11 M. The duplicate values were averaged. In either, HTS or CoRe format each compound was tested on at least 3 separate plates using cells from different passages to give an n≧3.

T1 sequence (P43116 whole entry): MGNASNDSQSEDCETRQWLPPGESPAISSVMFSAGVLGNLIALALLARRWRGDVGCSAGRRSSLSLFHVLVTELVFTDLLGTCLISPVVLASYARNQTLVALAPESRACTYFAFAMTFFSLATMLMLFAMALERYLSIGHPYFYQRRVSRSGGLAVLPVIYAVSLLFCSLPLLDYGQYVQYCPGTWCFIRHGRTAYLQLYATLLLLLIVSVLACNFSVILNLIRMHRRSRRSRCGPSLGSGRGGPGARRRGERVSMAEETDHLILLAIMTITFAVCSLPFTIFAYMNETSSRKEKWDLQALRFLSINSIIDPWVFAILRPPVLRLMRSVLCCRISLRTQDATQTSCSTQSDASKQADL

EC50 [nM] | Compound
20 | CCCCCCC(O)c1ccc(N2C(=O)CC[C@@H]2COCc2ccc(C(=O)O)s2)cc1 (stereo partly shown) [drawing 141]
30 | CCCCCCC(O)c1ccc(N2C(=O)CC[C@@H]2CCCc2ccc(C(=O)O)s2)cc1 (stereo partly shown) [drawing 182]
30 | CCCCCCC(O)c1ccc(N2C(=O)CC[C@@H]2CCCc2ccc(C(=O)O)s2)cc1 (stereo partly shown) [drawing 154]
1810 | CCC(O)c1ccc(N2C(=O)CC[C@@H]2COCc2ccc(C(=O)O)s2)cc1 (stereo partly shown)

target: T2, HEK-EBNA cells expressing a PG EP2 receptor subtype (Homo sapiens, UniProt P43116); experiment: cAMP assay, EP2; format: cell-based; settings: unit inferred; read-out: EP2 data cAMP EC50
T2 construct: expressed in transfected cells; host or cells: HEK-EBNA
Description: A 384-well drug plate was prepared to contain 6 test compounds, PGE2 and cAMP in 16 serial dilutions in triplicate, using a Biomek station. HEK-EBNA cells expressing a target PG receptor subtype (EP2 or EP4) were suspended in a stimulation buffer (HBSS, 0.1% BSA, 0.5 mM IBMX and 5 mM HEPES, pH 7.4) in a density of 10^4 cells/5 μl. The reaction was initiated by mixing 5 μL drug dilutions with 5 μl of HEK-EBNA cells in a well, carried out for 30 min at room temperature, and followed by the addition of 5 μl anti-cAMP acceptor beads in the control buffer with Tween-20 (25 mM NaCl, 0.03% Tween-20, 5 mM HEPES, pH7.4). After 30 min in the dark at room temperature, the mixtures were incubated with 15 μl biotinylated-cAMP/strepavidin donor beads in Lysis/Detection buffer (0.1% BSA, 0.3% Tween-20 and 5 mM HEPES, pH7.4) for 45 min at the room temperature. Fluorescence changes were read using a Fusion-alpha HT microplate reader.

T2 sequence (P43116 whole entry): as above

EC50 [nM] | Compound
1.5 | CCCCCCC(O)c1ccc(N2C(=O)CC[C@@H]2COCc2ccc(C(=O)O)s2)cc1 (stereo partly shown) [drawing 141]
312 | CCC(O)c1ccc(N2C(=O)CC[C@@H]2COCc2ccc(C(=O)O)s2)cc1 (stereo partly shown)

target: T3, hEP3A/Gqi5 (Homo sapiens, UniProt P43115); experiment: FLIPR calcium signal, hEP3A; format: cell-based; settings: read-out: Other Receptors EC50 hEP3A
T3 construct: expressed in transfected cells; host or cells: HEK-293(EBNA)
T3 sequence (P43115 1-390): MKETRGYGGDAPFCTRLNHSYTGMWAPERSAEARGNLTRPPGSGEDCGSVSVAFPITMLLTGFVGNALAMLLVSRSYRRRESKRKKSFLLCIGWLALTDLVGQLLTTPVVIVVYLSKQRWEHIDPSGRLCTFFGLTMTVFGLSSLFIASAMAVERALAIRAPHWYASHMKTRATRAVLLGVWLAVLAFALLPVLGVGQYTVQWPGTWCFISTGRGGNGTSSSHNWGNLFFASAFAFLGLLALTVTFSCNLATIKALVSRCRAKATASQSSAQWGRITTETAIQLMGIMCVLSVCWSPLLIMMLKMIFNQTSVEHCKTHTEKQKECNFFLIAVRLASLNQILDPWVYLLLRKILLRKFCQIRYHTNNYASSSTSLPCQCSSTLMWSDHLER
Description: as §1, §2, §3, §4

EC50 [nM] | Compound
47 | CCCCCCC(O)c1ccc(N2C(=O)CC[C@@H]2CCCc2ccc(C(=O)O)s2)cc1 (stereo partly shown) [drawing 182]
47 | CCCCCCC(O)c1ccc(N2C(=O)CC[C@@H]2CCCc2ccc(C(=O)O)s2)cc1 (stereo partly shown) [drawing 154]

target: T4, hEP4/Gqs5 (Homo sapiens, UniProt P35408); experiment: FLIPR calcium signal, hEP4; format: cell-based; settings: unit inferred; read-out: EP4 data flipr EC50
T4 construct: expressed in transfected cells; host or cells: HEK-293(EBNA)
Description: as §1, §2, §3, §4

T4 sequence (P35408 whole entry): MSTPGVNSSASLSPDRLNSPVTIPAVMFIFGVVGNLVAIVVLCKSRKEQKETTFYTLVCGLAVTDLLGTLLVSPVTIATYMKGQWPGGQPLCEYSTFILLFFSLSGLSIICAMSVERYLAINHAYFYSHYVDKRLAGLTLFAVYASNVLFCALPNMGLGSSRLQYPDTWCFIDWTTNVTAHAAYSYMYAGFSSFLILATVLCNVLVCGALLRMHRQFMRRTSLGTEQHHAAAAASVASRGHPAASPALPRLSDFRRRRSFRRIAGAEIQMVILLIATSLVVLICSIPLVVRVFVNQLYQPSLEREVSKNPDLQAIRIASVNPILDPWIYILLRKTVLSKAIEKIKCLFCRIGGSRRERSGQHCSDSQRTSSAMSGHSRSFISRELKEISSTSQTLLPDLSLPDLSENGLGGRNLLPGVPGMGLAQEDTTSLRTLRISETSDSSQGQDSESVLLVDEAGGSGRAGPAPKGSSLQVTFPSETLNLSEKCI

EC50 [nM] | Compound
> 10000 | CCCCCCC(O)c1ccc(N2C(=O)CC[C@@H]2CCCc2ccc(C(=O)O)s2)cc1 (stereo partly shown) [drawing 182]
> 10000 | CCCCCCC(O)c1ccc(N2C(=O)CC[C@@H]2CCCc2ccc(C(=O)O)s2)cc1 (stereo partly shown) [drawing 154]
> 10000 | CCC(O)c1ccc(N2C(=O)CC[C@@H]2COCc2ccc(C(=O)O)s2)cc1 (stereo partly shown)

target: T5, EP4 receptors (Homo sapiens, UniProt P35408); experiment: Radioligand binding ([3H]PGE2), EP4; settings: unit inferred; read-out: EP4 data KI
T5 construct: expressed in transfected cells; host or cells: HEK-293
Description: (§5) HEK-293 cells stably expressing the human or feline FP receptor, or EP1, EP2, or EP4 receptors were washed with TME buffer, scraped from the bottom of the flasks, and homogenized for 30 sec using a Brinkman PT 10/35 polytron. TME buffer was added to achieve a final 40 ml volume in the centrifuge tubes (the composition of TME is 100 mM TRIS base, 20 mM MgCl2, […]; 10N HCl is added to achieve a pH of 7.4).
(§6) The cell homogenate was centrifuged at 19000 r.p.m. for 20 min at 4° C. using a Beckman Ti-60 rotor. The resultant pellet was resuspended in TME buffer to give a final 1 mg/ml protein concentration, as determined by Biorad assay. Radioligand binding competition assays vs. [^3H-]17 —phenyl PGF2α (5 nM) were performed in a 100 μl volume for 60 min. Binding reactions were started by adding plasma membrane fraction. The reaction was terminated by the addition of 4 ml ice-cold TRIS-HCl buffer and rapid filtration through glass fiber GF/B filters using a Brandel cell harvester. The filters were washed 3 times with ice-cold buffer and oven dried for one hour.
(§7) [^3H-] PGE2 (specific activity 180 Ci mmol) was used as the radioligand for EP receptors. [^3H] 17-phenyl PGF2α was employed for FP receptor binding studies. Binding studies employing EP1, EP2, EP4 and FP receptors were performed in duplicate in at least three separate experiments. A 200 μl assay volume was used. Incubations were for 60 min at 25° C. and were terminated by the addition of 4 ml of ice-cold 50 mM TRIS-HCl, followed by rapid filtration through Whatman GF/B filters and three additional 4 ml washes in a cell harvester (Brandel). Competition studies were performed using a final concentration of 5 nM [^3H]—PGE2, or 5 nM [^3H] 17-phenyl PGF2α and non-specific binding determined with 10^−5M of unlabeled PGE2, or 17-phenyl PGF2α, according to receptor subtype studied.

T5 sequence (P35408 whole entry): as above

Ki [nM] | Compound
> 10000 | CCCCCCC(O)c1ccc(N2C(=O)CC[C@@H]2COCc2ccc(C(=O)O)s2)cc1 (stereo partly shown) [drawing 141]
> 10000 | CCC(O)c1ccc(N2C(=O)CC[C@@H]2COCc2ccc(C(=O)O)s2)cc1 (stereo partly shown)

target: T6, human EP2 receptors (Homo sapiens, UniProt P43116); experiment: Competition radioligand binding ([3H]PGE2), EP2; settings: unit inferred; read-out: EP2 data Ki
T6 construct: expressed in transfected cells; host or cells: HEK 293
Description: Competition binding experiments were performed in a medium containing Hank's balanced salt solution, […], membranes (˜60 μg protein) or 2×10^5 cells from HEK 293 cells stably expressing human EP2 receptors, [^3H]PGE2 (10 nM) and various concentrations of test compounds in a total volume of 300 μl. Reaction mixtures were incubated at 23° C. for 60 min, and were filtered over Whatman GF/B filters under vacuum. Filters were washed three times with 5 ml ice-cold buffer containing 50 mM Tris/HCl (pH 7.3). Non-specific binding was estimated in the presence of excess unlabeled PGE2 (10 μM). Binding data fitted to the binding model for a single class of binding sites, using nonlinear regression analysis. IC50 values thus obtained were converted to Ki using the equation of Ki=(IC50/(1+[L]/KD) where [L] represents PGE2 concentration (10 nM) and KD the dissociation constant for [^3H]PGE2 at human EP2 receptors (40 nM).
as §5, §6, §7

T6 sequence (P43116 whole entry): as the sequence (P43116 whole entry) above

Ki [nM] | Compound
190 | CCCCCCC(O)c1ccc(N2C(=O)CC[C@@H]2COCc2ccc(C(=O)O)s2)cc1 (stereo partly shown) [drawing 141]
5730 | CCC(O)c1ccc(N2C(=O)CC[C@@H]2COCc2ccc(C(=O)O)s2)cc1 (stereo partly shown)

target: T7, hDP/Gqs5 (Homo sapiens, UniProt Q13258); experiment: FLIPR calcium signal, hDP; format: cell-based; settings: read-out: Other Receptors EC50 hDP
T7 construct: expressed in transfected cells; host or cells: HEK-293(EBNA)
T7 sequence (Q13258 1-359): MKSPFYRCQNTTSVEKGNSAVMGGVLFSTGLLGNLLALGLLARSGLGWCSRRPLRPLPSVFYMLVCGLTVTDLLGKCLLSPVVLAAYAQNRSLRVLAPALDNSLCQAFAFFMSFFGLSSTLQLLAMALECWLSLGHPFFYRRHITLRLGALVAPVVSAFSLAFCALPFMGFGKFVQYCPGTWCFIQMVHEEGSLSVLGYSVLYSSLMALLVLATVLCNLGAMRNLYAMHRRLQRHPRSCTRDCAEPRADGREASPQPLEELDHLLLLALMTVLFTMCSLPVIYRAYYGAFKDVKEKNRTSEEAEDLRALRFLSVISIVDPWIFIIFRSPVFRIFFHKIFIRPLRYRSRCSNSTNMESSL
Description: as §1, §2, §3, §4

EC50 [nM] | Compound
5760 | CCCCCCC(O)c1ccc(N2C(=O)CC[C@@H]2COCc2ccc(C(=O)O)s2)cc1 (stereo partly shown) [drawing 141]
105 | CCCCCCC(O)c1ccc(N2C(=O)CC[C@@H]2CCCc2ccc(C(=O)O)s2)cc1 (stereo partly shown) [drawing 182]
105 | CCCCCCC(O)c1ccc(N2C(=O)CC[C@@H]2CCCc2ccc(C(=O)O)s2)cc1 (stereo partly shown) [drawing 154]
7560 | CCC(O)c1ccc(N2C(=O)CC[C@@H]2COCc2ccc(C(=O)O)s2)cc1 (stereo partly shown)
